Each compound was assayed against T1, HCV polymerase (Hepatitis C virus genotype 1b, UniProt Q9WMX2) (assay: biochemical). Conditions: polymerase assay of Biological Example 1; read-out: NS5B polymerase IC50.
T1 construct: (His)6 (C)
Text: A number of assays have been published to assess these activities. A general method that assesses the gross increase of HCV virus in culture was disclosed in U.S. Pat. No. 5,738,985 to Miles et al. In vitro assays have been reported in Ferrari et al. Jnl. of Vir., 73:1649-1654, 1999; Ishii et al., Hepatology, 29:1227-1235, 1999; Lohmann et al., Jnl of Bio. Chem., 274:10807-10815, 1999; and Yamashita et al., Jnl. of Bio. Chem., 273:15479-15486, 1998.
WO 97/12033, filed on Sep. 27, 1996, by Emory University, listing C. Hagedorn and A. Reinoldus as inventors, which claims priority to U.S. Provisional Patent Application Ser. No. 60/004,383, filed on September 1995, described an HCV polymerase assay that can be used to evaluate the activity of the of the compounds described herein. Another HCV polymerase assay has been reported by Bartholomeusz, et al., Hepatitis C Virus (HCV) RNA polymerase assay using cloned HCV non-structural proteins; Antiviral Therapy 1996:1(Supp 4) 18-24.

IC50 [nM] | Compound
43 | CNC(=O)c1c(-c2ccc(F)cc2)oc2nc(N(C)S(C)(=O)=O)c(C(C)C(F)(F)F)cc12 (stereo not drawn) [Example 6.1, 2-(4-fluorophenyl)-N-methyl-6-(N-methylmethylsulfonamido)-5-(1,1,1-trifluoropropan-2-yl)furo[2,3-b]pyridine-3-carboxamide]
58 | CNC(=O)c1c(-c2ccc(F)cc2)oc2nc(N(C)S(C)(=O)=O)c(C(C)C)cc12 [Example 6.2, 2-(4-fluorophenyl)-5-isopropyl-N-methyl-6-(N-methylmethylsulfonamido)furo[2,3-b]pyridine-3-carboxamide]
60 | C#Cc1cc2c(C(=O)NC)c(-c3ccc(F)cc3)oc2nc1N(C)S(C)(=O)=O [Example 7, 5-ethynyl-2-(4-fluorophenyl)-N-methyl-6-(N-methylmethylsulfonamido)furo[2,3-b]pyridine-3-carboxamide]
125 | CNC(=O)c1c(-c2ccc(F)cc2)oc2nc(N(C)S(C)(=O)=O)c(C(C)(F)F)cc12 [Example 8, 5-(1,1-difluoroethyl)-2-(4-fluorophenyl)-N-methyl-6-(N-methylmethylsulfonamido)furo[2,3-b]pyridine-3-carboxamide]
117 | CNC(=O)c1c(-c2ccc(C)cc2)oc2nc(N(C)S(C)(=O)=O)c(CC(O)CO)cc12 (stereo not drawn) [Example 9.1, 5-(2,3-dihydroxypropyl)-N-methyl-6-(N-methylmethylsulfonamido)-2-p-tolylfuro[2,3-b]pyridine-3-carboxamide]
82 | CNC(=O)c1c(-c2ccc(C)cc2)oc2nc(N(C)S(C)(=O)=O)c(CCCO)cc12 [Example 9.2, 5-(3-hydroxypropyl)-N-methyl-6-(N-methylmethylsulfonamido)-2-p-tolylfuro[2,3-b]pyridine-3-carboxamide]
467 | CNC(=O)c1c(-c2ccc(F)cc2)oc2nc(N(C)S(C)(=O)=O)c(C(C)=O)cc12 [Example 10, 5-acetyl-2-(4-fluorophenyl)-N-methyl-6-(N-methylmethylsulfonamido)furo[2,3-b]pyridine-3-carboxamide]
825 | CNC(=O)c1c(-c2ccc(F)cc2)oc2nc(N(C)S(C)(=O)=O)c(C(C)O)cc12 (stereo not drawn) [Example 11, 2-(4-fluorophenyl)-5-(1-hydroxyethyl)-N-methyl-6-(N-methylmethylsulfonamido)furo[2,3-b]pyridine-3-carboxamide]
734 | CNC(=O)c1c(-c2ccc(F)cc2)oc2nc(N(C)S(C)(=O)=O)c(CC3CO3)cc12 (stereo not drawn) [Example 12, 2-(4-fluorophenyl)-N-methyl-6-(N-methylmethylsulfonamido)-5-(oxiran-2-ylmethyl)furo[2,3-b]pyridine-3-carboxamide]
273 | CNC(=O)c1c(-c2ccc(F)cc2)oc2nc(N(C)S(C)(=O)=O)c(/C=C/C#N)cc12 [Example 13, (E)-5-(2-cyanovinyl)-2-(4-fluorophenyl)-N-methyl-6-(N-methylmethylsulfonamido)furo[2,3-b]pyridine-3-carboxamide]
147 | CNC(=O)c1c(-c2ccc(F)cc2)oc2nc(N(C)S(C)(=O)=O)c(CCC#N)cc12 [Example 14, 5-(2-cyanoethyl)-2-(4-fluorophenyl)-N-methyl-6-(N-methylmethylsulfonamido)furo[2,3-b]pyridine-3-carboxamide]
498 | CNC(=O)c1c(-c2ccc(F)cc2)oc2nc(N(C)S(C)(=O)=O)c(CCCCCNC(C)=O)cc12 [Example 14.3, 5-(5-Acetylamino-pentyl)-2-(4-fluoro-phenyl)-6-(methanesulfonyl-methyl-amino)-furo[2,3-b]pyridine-3-carboxylic acid methylamide]
532 | CNC(=O)c1c(-c2ccc(F)cc2)oc2nc(N(C)S(C)(=O)=O)c(CCCN)cc12 [Example 15, 5-(3-aminopropyl)-2-(4-fluorophenyl)-N-methyl-6-(N-methylmethylsulfonamido)furo[2,3-b]pyridine-3-carboxamide]
128 | CCc1cc2c(C(=O)NC)c(-c3ccc(Oc4ccccc4)cc3)oc2nc1N(C)S(C)(=O)=O [Example 17, 5-ethyl-N-methyl-6-(N-methylmethylsulfonamido)-2-(4-phenoxyphenyl)furo[2,3-b]pyridine-3-carboxamide]
115 | CNC(=O)c1c(-c2ccc(F)cc2)oc2nc(N(CCCCC(=O)OC)S(C)(=O)=O)c(I)cc12 [Example 18, 5-{[2-(4-Fluoro-phenyl)-5-iodo-3-methylcarbamoyl-furo[2,3-b]pyridin-6-yl]-methanesulfonyl-amino}-pentanoic acid methyl ester]
451 | CNC(=O)c1c(-c2ccc(F)cc2)oc2nc(N(CCO)S(C)(=O)=O)c(I)cc12 [Example 18.1, 2-(4-fluorophenyl)-6-(N-(2-hydroxyethyl)methylsulfonamido)-5-iodo-N-methylfuro[2,3-b]pyridine-3-carboxamide]
61 | CNC(=O)c1c(-c2ccc(F)cc2)oc2nc(N(CCCC#N)S(C)(=O)=O)c(I)cc12 [Example 18.2, 6-(N-(3-cyanopropyl)methylsulfonamido)-2-(4-fluorophenyl)-5-iodo-N-methylfuro[2,3-b]pyridine-3-carboxamide]
103 | C=CCCN(c1nc2oc(-c3ccc(F)cc3)c(C(=O)NC)c2cc1I)S(C)(=O)=O [Example 18.3, 6-(N-(but-3-enyl)methylsulfonamido)-2-(4-fluorophenyl)-5-iodo-N-methylfuro[2,3-b]pyridine-3-carboxamide]
260 | CNC(=O)c1c(-c2ccc(F)cc2)oc2nc(N(CCN3CCOCC3)S(C)(=O)=O)c(I)cc12 [Example 18.4, 2-(4-fluorophenyl)-5-iodo-N-methyl-6-(N-(2-morpholinoethyl)methylsulfonamido)furo[2,3-b]pyridine-3-carboxamide]
449 | C=CCCCN(c1nc2oc(-c3ccc(F)cc3)c(C(=O)NC)c2cc1I)S(C)(=O)=O [Example 18.5, 2-(4-fluorophenyl)-5-iodo-N-methyl-6-(N-(pent-4-enyl)methylsulfonamido)furo[2,3-b]pyridine-3-carboxamide]
573 | CNC(=O)c1c(-c2ccc(F)cc2)oc2nc(N(CCc3ccccc3OC)S(C)(=O)=O)c(I)cc12 [Example 18.6, 2-(4-fluorophenyl)-5-iodo-6-(N-(2-methoxyphenethyl)methylsulfonamido)-N-methylfuro[2,3-b]pyridine-3-carboxamide]
76 | CNC(=O)c1c(-c2ccc(F)cc2)oc2nc(N(CCCC(=O)OC)S(C)(=O)=O)c(I)cc12 [Example 18.7, methyl 4-(N-(2-(4-fluorophenyl)-5-iodo-3-(methylcarbamoyl)furo[2,3-b]pyridin-6-yl)methylsulfonamido)butanoate]
51 | CNC(=O)c1c(-c2ccc(F)cc2)oc2nc(N(Cc3cccc(C(N)=O)c3)S(C)(=O)=O)c(I)cc12 [Example 18.8, 6-(N-(3-carbamoylbenzyl)methylsulfonamido)-2-(4-fluorophenyl)-5-iodo-N-methylfuro[2,3-b]pyridine-3-carboxamide]
109 | CNC(=O)c1c(-c2ccc(F)cc2)oc2nc(N(CCCCC#N)S(C)(=O)=O)c(I)cc12 [Example 18.9, 6-(N-(4-cyanobutyl)methylsulfonamido)-2-(4-fluorophenyl)-5-iodo-N-methylfuro[2,3-b]pyridine-3-carboxamide]
133 | CNC(=O)c1c(-c2ccc(F)cc2)oc2nc(N(CCCN3CCNC3=O)S(C)(=O)=O)c(I)cc12 [Example 18.91, 2-(4-fluorophenyl)-5-iodo-N-methyl-6-(N-(3-(2-oxoimidazolidin-1-yl)propyl)methylsulfonamido)furo[2,3-b]pyridine-3-carboxamide]
1020 | CNC(=O)c1c(-c2ccc(F)cc2)oc2nc(N(CC3CCCN(C(=O)OC(C)(C)C)C3)S(C)(=O)=O)c(I)cc12 (stereo not drawn) [Example 18.92, tert-butyl 3-((N-(2-(4-fluorophenyl)-5-iodo-3-(methylcarbamoyl)furo[2,3-b]pyridin-6-yl)methylsulfonamido)methyl)piperidine-1-carboxylate]
108 | CNC(=O)c1c(-c2ccc(F)cc2)oc2nc(N(CCCC(O)CO)S(C)(=O)=O)c(I)cc12 (stereo not drawn) [Example 18.93, 6-(N-(4,5-dihydroxypentyl)methylsulfonamido)-2-(4-fluorophenyl)-5-iodo-N-methylfuro[2,3-b]pyridine-3-carboxamide]
243 | CNC(=O)c1c(-c2ccc(F)cc2)oc2nc(N(CCC(O)CO)S(C)(=O)=O)c(I)cc12 (stereo not drawn) [Example 18.94, 6-(N-(3,4-dihyroxybutyl)methylsulfonamido)-2-(4-fluorophenyl)-5-iodo-N-methylfuro[2,3-b]pyridine-3-carboxamide]
29 | CNC(=O)c1c(-c2ccc(Cl)cc2)oc2nc(N(CCCS(C)(=O)=O)S(C)(=O)=O)c(I)cc12 [Example 18.991, 2-(4-chlorophenyl)-5-iodo-N-methyl-6-(N-(3-(methylsulfonyl)propyl)methylsulfonamido)furo[2,3-b]pyridine-3-carboxamide]
237 | CNC(=O)c1c(-c2ccc(F)cc2)oc2nc(N(CCCOCCOC)S(C)(=O)=O)c(I)cc12 [Example 18.992, 2-(4-fluorophenyl)-5-iodo-6-(N-(3-(2-methoxyethoxy)propyl)methylsulfonamido)-N-methylfuro[2,3-b]pyridine-3-carboxamide]
